Laboratory results from patent US11186589B2, “Cyanoindoline derivatives as NIK inhibitors” (Janssen Pharmaceutica NV, priority 2016, dated 2021).
Like-named read-outs stand apart in the source and are kept apart here.

Legend:
NIK/MAP3K14 = NIK/MAP3K14 (Homo sapiens (Human), UniProt Q99558); assay: Inhibition of auto-phosphorylation of recombinant human NF-kappaB-inducing kinase (NIK/MAP3K14) activity (AlphaScreen); type: biochemical; details: averaged values over all measurements on all batches, 25 microM ATP
Description: Inhibition of Auto-Phosphorylation of Recombinant Human NF-kappaB-Inducing Kinase ([…]) Activity (AlphaScreen®)
NIK/MAP3K14 auto-phosphorylation activity was measured using the AlphaScreen® (αscreen) format (Perkin Elmer). All compounds tested were dissolved in dimethyl sulfoxide (DMSO) and further dilutions were made in assay buffer. Final DMSO concentration was […] in assays. Assay buffer was 50 mM Tris pH 7.5 containing 1 mM EGTA (ethylene glycol tetraacetic acid), 1 mM DTT (dithiothreitol), 0.1 mM Na3VO4, 5 mM MgCl2, 0.01% Tween® 20. Assays were carried out in 384 well Alphaplates (Perkin Elmer). Incubations consisted of compound, 25 microM Adenosine-5′-triphosphate (ATP), and 0.2 nM NIK/MAP3K14. Incubations were initiated by addition of GST-tagged NIK/MAP3K14 enzyme, carried out for 1 h at 25° C. and terminated by addition of stop buffer containing anti-phospho-[…] Ser176/180 antibody. Protein A Acceptor and Glutathione-Donor beads were added before reading using an EnVision® Multilabel Plate Reader (Perkin Elmer). Signal obtained in the wells containing blank samples was subtracted from all other wells and IC50's were determined by fitting a sigmoidal curve to % inhibition of control versus Log10 compound concentration.

KMS12-BM cells = assay: Antiproliferative activity on KMS12-BM (NIK WT) multiple myeloma cells (CellTiter-Glo); type: cell-based, human; details: 96 hr treatment, averaged values, read-out: KMS-12 Proliferation inhibition (IC50 (nM))
Description: (§1) Determination of Antiproliferative Activity on JJN-3 (NIK Translocated) and KMS12-BM (NIK WT) Multiple Myeloma Cells
(§2) All compounds tested were dissolved in DMSO and further dilutions were made in culture medium. Final DMSO concentration was 0.3% (v/v) in cell proliferation assays. Viability was assessed using CellTiter-Glo cell viability assay kit (Promega). The human JJN-3 and KMS12-BM cells (DSMZ) were cultured in RPMI 1640 medium supplemented with 2 mM L-glutamine, and 10% fetal calf serum (PAA). Cells were routinely kept as suspension cells at 37° C. in a humidified 5% CO2 atmosphere. Cells were passaged at a seeding density of 0.2×10^6/ml twice a week. Cells were seeded in black tissue culture treated 96-well plates (Perkin Elmer). Densities used for plating ranged from 15000 (JJN3) to 20000 (KMS12BM) cells per well in a total volume of […]. Drugs and/or solvents were added (15 μl) to a final volume of 150 μl. Following 96 hr of treatment, plates were removed from the incubator and allowed to equilibrate to room temperature for approx 10 min. 75 μl CellTiter-Glo reagent was added to each well that was then covered (Perkin Elmer Topseal) and shaken on plate shaker for 10 min. Luminescence was measured on a HTS Topcount (Perkin Elmer). Within an experiment, the results for each treatment were the mean of 2 replicate wells. For initial screening purposes, compounds were tested using a 9 point dilution curve (serial 1:3 dilutions). For each experiment, controls (containing no drug) and a blank incubation (containing cells read at the time of compound addition) were run in parallel. The blank value was subtracted from all control and sample values. For each sample, the mean value for cell growth (in relative light units) was expressed as a percentage of the mean value for cell growth of the control.

JJN-3 cells = assay: Antiproliferative activity on JJN-3 (NIK translocated) multiple myeloma cells (CellTiter-Glo); type: cell-based, human; details: JJN-3 (NIK translocated) cells, 96 hr treatment, averaged values, read-out: JJN-3 Proliferation inhibition (IC50 (nM))
Description: as §1, §2

NIK/MAP3K14, sequence (Q99558 whole entry): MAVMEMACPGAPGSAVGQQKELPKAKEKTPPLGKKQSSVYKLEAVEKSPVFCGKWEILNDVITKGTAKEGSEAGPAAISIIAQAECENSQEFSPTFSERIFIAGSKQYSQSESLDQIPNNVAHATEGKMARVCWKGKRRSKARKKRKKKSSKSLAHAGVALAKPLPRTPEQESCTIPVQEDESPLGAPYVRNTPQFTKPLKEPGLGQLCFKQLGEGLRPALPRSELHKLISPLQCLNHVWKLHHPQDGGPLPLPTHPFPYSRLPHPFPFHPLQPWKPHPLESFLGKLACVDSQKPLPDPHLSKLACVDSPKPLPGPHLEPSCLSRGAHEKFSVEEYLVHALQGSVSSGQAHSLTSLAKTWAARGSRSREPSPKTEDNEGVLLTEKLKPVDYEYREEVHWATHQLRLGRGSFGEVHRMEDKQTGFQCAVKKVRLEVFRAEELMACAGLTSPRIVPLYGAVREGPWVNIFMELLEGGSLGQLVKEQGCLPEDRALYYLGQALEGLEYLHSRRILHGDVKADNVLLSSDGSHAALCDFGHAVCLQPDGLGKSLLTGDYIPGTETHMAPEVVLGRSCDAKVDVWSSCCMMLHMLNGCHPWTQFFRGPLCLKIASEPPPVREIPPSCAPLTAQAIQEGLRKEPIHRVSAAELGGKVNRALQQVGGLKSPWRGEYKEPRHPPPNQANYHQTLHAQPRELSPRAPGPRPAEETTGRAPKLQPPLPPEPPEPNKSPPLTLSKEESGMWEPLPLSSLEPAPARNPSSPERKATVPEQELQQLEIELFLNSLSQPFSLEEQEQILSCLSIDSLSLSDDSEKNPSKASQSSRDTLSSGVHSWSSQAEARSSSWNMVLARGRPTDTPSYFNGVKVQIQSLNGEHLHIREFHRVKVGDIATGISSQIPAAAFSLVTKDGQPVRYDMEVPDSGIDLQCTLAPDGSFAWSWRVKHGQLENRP

Compound	IC50 (NIK/MAP3K14)	IC50 (KMS12-BM cells)	IC50 (JJN-3 cells)	IC50 (KMS12-BM cells; Homo sapiens, KMS-12-BM, 96 h)	IC50 (JJN-3 cells; Homo sapiens, JJN-3, 96 h)
CC1(CO)CNc2c(C#N)cc(-c3ccnc(Nc4ccc5c(c4)C(F)(F)CCO5)n3)cc21 (stereo not shown) [Compound 7]	5.9 nM	–	–	525 nM	48 nM
Cn1nc(Nc2nccc(-c3cc(C#N)c4c(c3)C(C)(CO)CN4)n2)c2c1CCC2 (stereo not shown) [Compound 5b]	20.4 nM	–	–	> 10000 nM	468 nM
Cn1nc2c(c1Nc1nccc(-c3cc(C#N)c4c(c3)C(C)(CO)CN4)n1)CCC2 (stereo not shown) [Compound 4b]	8.5 nM	–	–	~6460 nM	1900 nM
CC1OCCn2nc(Nc3nccc(-c4cc(C#N)c5c(c4)C(C)(CO)CN5)n3)cc21 (stereo not shown) [Compound 6b]	5.9 nM	–	–	~851 nM	398 nM
COCCCn1ccc2c(Nc3nccc(-c4cc(C#N)c5c(c4)C(C)(CO)CN5)n3)cc(Cl)cc21 (stereo not shown) [Compound 6c]	34.8 nM	–	–	1620 nM	10 nM
CC(C)c1c(Nc2nccc(-c3cc(C#N)c4c(c3)[C@@](C)(CO)CN4)n2)nn2c1CN(C)CC2 [Compound 16b]	363 nM	–	–	–	–
CC1(CO)CNc2c(C#N)cc(-c3ccnc(Nc4cnc5c(c4)COCC5)n3)cc21 (stereo not shown) [Compound 45]	2.7 nM	–	–	~186 nM	~60 nM
COCCCc1cc2c(cc1Nc1nccc(-c3cc(C#N)c4c(c3)[C@@](C)(CO)CN4)n1)CCN(C)CC2 [Compound 20]	20.4 nM	–	–	1480 nM	372 nM
CN1Cc2cc(Nc3nccc(-c4cc(C#N)c5c(c4)C(C)(CO)CN5)n3)nn2CC1=O (stereo not shown) [Compound 8b]	4 nM	–	–	6170 nM	1150 nM
CC1(CO)CNc2c(C#N)cc(-c3ccnc(Nc4cc(Cl)cc5c4ccn5CCCN4CCOCC4)n3)cc21 (stereo not shown) [Compound 5c]	12 nM	–	–	~692 nM	23 nM
CN1CCc2[nH]c(=O)c(Nc3nccc(-c4cc(C#N)c5c(c4)C(C)(CC(F)F)CN5)n3)cc2C1 (stereo not shown) [Compound 57]	17.4 nM	–	–	> 10000 nM	11200 nM
CC1(C)CNc2c(C#N)cc(-c3ccnc(Nc4cccc5c4CNC5)n3)cc21 [Compound 2]	4.3 nM	–	–	~177 nM	112 nM
CC1(CO)CNc2c(C#N)cc(-c3ccnc(Nc4cc5n(n4)CCOC5)n3)cc21 (stereo not shown) [Compound 7b]	11.8 nM	–	–	6310 nM	1700 nM
CC1(C)CNc2c(C#N)cc(-c3ccnc(Nc4cccc5c4CNCC5)n3)cc21 [Compound 6]	12.6 nM	–	–	794 nM	263 nM
CC1(CO)CNc2c(C#N)cc(-c3ccnc(Nc4ccc5c(c4)CC(CO)OC5)n3)cc21 (single isomer, unassigned) [Compound 8]	2 nM	162 nM	41 nM	–	–
CC1(CO)CNc2c(C#N)cc(-c3ccnc(Nc4cc(Cl)cc5c4ccn5CCN4CCOCC4)n3)cc21 (stereo not shown) [Compound 4c]	9.6 nM	–	–	~1020 nM	9 nM
COCCn1ccc2cc(Nc3nccc(-c4cc(C#N)c5c(c4)[C@@](C)(CO)CN5)n3)c(OC)nc21 [Compound 14c]	5.6 nM	–	–	> 10000 nM	63 nM
CN1CCn2nc(Nc3nccc(-c4cc(C#N)c5c(c4)C(C)(CO)CN5)n3)cc2C1 (stereo not shown) [Compound 9b]	6.8 nM	–	–	1660 nM	204 nM
CC1(C)Cn2nc(Nc3nccc(-c4cc(C#N)c5c(c4)C(C)(CO)CN5)n3)cc2CO1 (stereo not shown) [Compound 10b]	9.6 nM	–	–	2400 nM	1020 nM
CN1CCc2ccc(Nc3nccc(-c4cc(C#N)c5c(c4)C(C)(CO)CN5)n3)cc2CC1 (stereo not shown) [Compound 3]	1.4 nM	–	–	85 nM	~24 nM
CC1(CO)CNc2c(C#N)cc(-c3ccnc(Nc4ccc5c(c4)CC(CO)OC5)n3)cc21 (single isomer, unassigned) [Compound 5]	1.9 nM	–	–	151 nM	21 nM
CC1(C)CNc2c(C#N)cc(-c3ccnc(Nc4cc(F)cc5[nH]ccc45)n3)cc21 [Compound 8c]	38 nM	–	–	> 10000 nM	85 nM
COCCn1nc2c(c1Nc1nccc(-c3cc(C#N)c4c(c3)[C@@](C)(CO)CN4)n1)CCC2 [Compound 11b]	39.8 nM	–	–	~1820 nM	1580 nM

Second part, the compound after the results:

IC50 (NIK/MAP3K14)	IC50 (KMS12-BM cells)	IC50 (JJN-3 cells)	IC50 (KMS12-BM cells; Homo sapiens, KMS-12-BM, 96 h)	IC50 (JJN-3 cells; Homo sapiens, JJN-3, 96 h)	Compound
14.1 nM	~6610 nM	22 nM	–	–	CN(C)C(=O)C1COc2c(cc(Cl)cc2Nc2nccc(-c3cc(C#N)c4c(c3)[C@@](C)(CO)CN4)n2)C1 (stereo partly shown) [Compound 12]
5.9 nM	–	–	550 nM	96 nM	CC1(CO)CNc2c(C#N)cc(-c3ccnc(Nc4ccc5c(c4)CCCO5)n3)cc21 (stereo not shown) [Compound 1]
2.5 nM	–	–	96 nM	89 nM	Cc1c(Nc2nccc(-c3cc(C#N)c4c(c3)[C@@](C)(CO)CN4)n2)ccc2c1CCN2C(=O)CN(C)C [Compound 15]
3 nM	–	–	251 nM	54 nM	CNC(=O)CN1CCc2c(Nc3nccc(-c4cc(C#N)c5c(c4)C(C)(CO)CN5)n3)cc(Cl)cc21 (stereo not shown) [Compound 14]
2 nM	–	–	~2750 nM	25 nM	CC(=O)N1CCc2c(C)c(Nc3nccc(-c4cc(C#N)c5c(c4)C(C)(CO)CN5)n3)cc(Cl)c21 (stereo not shown) [Compound 9]
1.3 nM	–	–	~3550 nM	18 nM	CN(C)CC(=O)N1CCc2c(Nc3nccc(-c4cc(C#N)c5c(c4)[C@@](C)(CO)CN5)n3)cc(Cl)cc21 [Compound 13]
26.9 nM	–	–	> 10000 nM	107 nM	CC1(CO)CNc2c(C#N)cc(-c3ccnc(Nc4cc(Cl)cc5c4OCCC5)n3)cc21 (stereo not shown) [Compound 4]
10.5 nM	–	–	5620 nM	1180 nM	Cc1c(Nc2nccc(-c3cc(C#N)c4c(c3)C(C)(CO)CN4)n2)cc(Cl)c2[nH]ccc12 (stereo not shown) [Compound 9c]
9.1 nM	1180 nM	–	–	36 nM	CN(C)C(=O)C1COc2c(cc(Cl)cc2Nc2nccc(-c3cc(C#N)c4c(c3)[C@@](C)(CO)CN4)n2)C1 (stereo partly shown) [Compound 11]
5 nM	–	–	~692 nM	6 nM	CN(C)C(=O)C(=O)N1CCc2c(Nc3nccc(-c4cc(C#N)c5c(c4)[C@@](C)(CO)CN5)n3)cc(Cl)cc21 [Compound 19]
4.3 nM	–	–	427 nM	16 nM	CNC(=O)CCn1ccc2c(Nc3nccc(-c4cc(C#N)c5c(c4)C(C)(CO)CN5)n3)cc(Cl)cc21 (stereo not shown) [Compound 11c]
4.3 nM	–	–	> 10000 nM	63 nM	COc1nc2c(ccn2CC(=O)N(C)C)cc1Nc1nccc(-c2cc(C#N)c3c(c2)[C@@](C)(CO)CN3)n1 [Compound 10c]
1.6 nM	–	–	~339 nM	26 nM	Cc1c(Nc2nccc(-c3cc(C#N)c4c(c3)[C@@](C)(CO)CN4)n2)cc(Cl)c2c1CCN2C(=O)CN(C)C [Compound 16]
3.3 nM	182 nM	5 nM	–	–	CN(C)C1COc2c(cc(Cl)cc2Nc2nccc(-c3cc(C#N)c4c(c3)[C@@](C)(CO)CN4)n2)C1 (stereo partly shown) [Compound 17]
4.9 nM	–	–	~5750 nM	42 nM	CC1(CO)CNc2c(C#N)cc(-c3ccnc(Nc4cc(Cl)cc5c4CCN5)n3)cc21 (stereo not shown) [Compound 10]
